Experimental data: PubChem BioAssay AID549 (SRMLSC, 2006)
Activity calls are given as the source filed them.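 The calls were made as follows: active = clearly stronger inhibition of phosphomevalonate kinase than of the coupling enzymes alone in a parallel counterscreen; inactive = the rest.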

Each molecule was assayed against phosphomevalonate kinase (Streptococcus pneumoniae D39) (assay: S. pneumoniae PMK inhibitor potency, dose response, biochemical, mevalonate pathway, coupling enzyme counter-screen (AID 549)). Details: PK/LDH coupled NADH absorbance 340 nm.

SMILES | outcome
O=C(CN(C(=O)CNS(=O)(=O)c1ccccc1)C1CCCC1)NCc1ccco1 | inactive
O=C1CC(c2ccccc2)CC(O)=C1C=NCC1CCCO1 (configuration not stated) | inactive
Cc1nnc(SCC(=O)N2CC(=O)Nc3ccccc32)n1-c1ccccc1 | inactive
Cc1cc(OCC(=O)NCCO)cc(C)c1Cl | inactive
CCOC(=O)N1CCC(NC(=O)CSc2cc(=O)n(C)c3ccccc23)CC1 | inactive
COCCNC(=O)C1CCCN(c2nn3c(=O)cc(C)nc3s2)C1 (configuration not stated) | inactive
CCOC(=O)C1CCN(C(=O)C2CCN(S(=O)(=O)N3CCCC3)CC2)CC1 | inactive
COC(=O)CNc1nc(-c2ccccc2F)nc2ccccc12 | inactive
O=C(c1n[nH]c(=O)c2ccccc12)N1CCN(C2c3ccccc3-c3ccccc32)CC1 | inactive
CCOC(=O)CNC(=O)Nc1nnc(-c2ccc(OCC)cc2)o1 | inactive
COc1ccc(N2CCN(CCNS(=O)(=O)c3cccc4nsnc34)CC2)cc1 | inactive
CC(C)(C)NC(=O)CSc1ncnc2c1nnn2Cc1ccccc1Cl | inactive
O=C(c1ccc2ccccc2c1)N1CCN(c2ccc(O)cc2)CC1 | inactive
CC(C)OC(=O)c1cccnc1SCc1cc(=O)n2ccccc2n1 | inactive
COc1ccc(-c2cc3nc(C)c(CCC(=O)N4CCCCC4)c(C)n3n2)c(OC)c1 | inactive
O=C(NCc1ccccc1)C1C2C=CC3(CN(Cc4cccnc4)C(=O)C13)O2 (configuration not stated) | inactive
CCOc1cc(C#N)c(NC(=O)c2cccnc2)cc1OCC | inactive
CC(=O)c1ccc(N2CCN(c3ccc(C(F)(F)F)cn3)CC2)cc1 | inactive
CCOCC(=O)NC1CCSC1=O (configuration not stated) | inactive
O=C(CSc1nnc(COc2ccccc2)n1-c1ccccc1)c1cccs1 | inactive
CCS(=O)(=O)N1CCC(C(=O)NCc2ccco2)CC1 | inactive
COc1ccc(C2C(=O)N(C3CCCCC3)CC(=O)N2CCc2ccccc2)cc1OC (configuration not stated) | inactive
O=S(=O)(Nc1ccc(S(=O)(=O)N2CCOCC2)cc1)c1ccccc1 | inactive
Cc1n[nH]c(C)c1N1C(=O)c2cccc3c(N4CCCCCC4)ccc(c23)C1=O | inactive
Cc1ccc(C(=O)c2cc3c(cc2N)OCCO3)cc1 | inactive
COc1ccccc1C(c1nnnn1C(C)(C)C)N1CCN(Cc2ccncc2)CC1 (configuration not stated) | inactive

SMILES | outcome
CS(=O)(=O)N1CCCC(C(=O)NCc2ccccn2)C1 (configuration not stated) | inactive
CC(C)=CC(=O)Nc1ccc(Br)cc1 | inactive
CC(C)CCn1nnnc1C(c1ccc(F)cc1)N1CCN(C(=O)c2ccco2)CC1 (configuration not stated) | inactive
Cc1occc1-c1nnc(SCC(=O)N2CCOCC2)n1Cc1ccco1 | inactive
CCN(CC)C(=O)NC1CC2CCCC(C1)N2Cc1ccccc1 (configuration not stated) | inactive
COc1ccc(N2CCN(C(c3ccco3)c3sc4nc(C)nn4c3O)CC2)cc1 (configuration not stated) | inactive
CCNc1nc(NC(C)(C)C)nc(N(C#N)CC)n1 | inactive
O=C(c1cc2nc(-c3ccco3)cc(C(F)(F)F)n2n1)N1CCc2ccccc2C1 | inactive
O=C(NCc1ccc2c(c1)OCO2)c1cc2n(n1)C(C(F)(F)F)CC(c1ccc3c(c1)OCO3)N2 (configuration not stated) | inactive
CCOC(=O)CSc1n[nH]c(-c2cccnc2)n1 | inactive
CC1SC(=NC(=O)c2ccco2)NC1=O (configuration not stated) | inactive
CCOc1ccccc1C(=O)NCC(=O)OCC(=O)c1ccc2c(c1)OCCO2 | inactive
CCOC(=O)c1c(C)n(C)c2ccc(OC)c(NS(=O)(=O)c3ccc(Cl)s3)c12 | inactive
CCOC(=O)N1CCC(NC(=O)CCc2cn(C)c3ccccc23)CC1 | inactive
C[C@]12CC[C@@H]3c4ccc(OS(=O)(=O)O)cc4CC[C@H]3[C@@H]1CCC2=O | inactive
CCOCCCNC(=O)C1CCN(S(=O)(=O)N(CC(C)C)CC(C)C)CC1 | inactive
O=C(Nc1cccc2ccccc12)c1cnccn1 | inactive
Cc1nc(SC2C=CS(=O)(=O)C2)n[nH]1 (configuration not stated) | inactive
COC(=O)C1=C(C)OC(N)=C(C#N)C1c1cc(OC)c(OCC(N)=O)cc1Cl (configuration not stated) | inactive
COc1ccc(C(c2nnnn2CC2CCCO2)N2CCN(c3ccccc3)CC2)cc1 (configuration not stated) | inactive
CCOCCCNC(=O)C1CCN(S(=O)(=O)CC)CC1 | inactive
CC(C)n1nnnc1SCC(=O)Nc1ccccc1N1CCOCC1 | inactive
CCS(=O)(=O)N1CCC(C(=O)NCCc2ccccc2)CC1 | inactive
Cc1ccc(Cl)cc1N1CCN(Cc2nnnn2C2CCCCC2)CC1 | inactive
CCC1CCCCN1CCCNC(=O)Cn1nc(-c2ccccc2)ccc1=O (configuration not stated) | inactive
CN(C(=O)C1CCOC1)c1nnc(C2CCOC2)s1 (configuration not stated) | inactive

SMILES | outcome
Cc1ccc(-n2nc3c(c2NC(=O)c2c(-c4ccccc4Cl)noc2C)CS(=O)(=O)C3)c(C)c1 | inactive
CC1(C(=O)NC2CCCCCCC2)CCC(=O)N1Cc1ccco1 (configuration not stated) | inactive
CCC(Sc1nccn1C)C(=O)Nc1cccc2ccccc12 (configuration not stated) | inactive
CC(C)OC(=O)CCC1(C(=O)O)CCC(=O)NC1 (configuration not stated) | inactive
C=CCSc1nnc(Cn2c(=O)sc3ccccc32)n1C | inactive
COc1ccc2c(c1)OC1(C)CC2C(C(=O)c2ccccc2OC)C(=O)N1 (configuration not stated) | inactive
CC1CCN(C(=O)CSc2nc3ccccc3[nH]2)CC1 | inactive
CC(c1ccccc1)C(CC(=O)O)C(=O)NC1CCCCC1 (configuration not stated) | inactive
CCN1CCN(C(c2ccc(F)cc2)c2nnnn2Cc2cccs2)CC1 (configuration not stated) | inactive
O=c1oc2c3c4c(cc2cc1-c1nc2ccccc2[nH]1)CCCN4CCC3 | inactive
CCOC(=O)C1=C(O)C(=O)N(c2ccc(S(N)(=O)=O)cc2)C1c1ccc(OC)cc1 (configuration not stated) | inactive
CCOc1ccc(-c2nnc(SCC(=O)N3CCN(c4ccccc4)CC3)o2)cc1 | inactive
Cc1onc(-c2c(Cl)cccc2Cl)c1C(=O)Nc1ccc2c(c1)OCO2 | inactive
N#Cc1cccc(CSc2nnc(CCCO)n2-c2ccccc2)c1 | inactive
CNC(=O)C1CC(=O)N(Cc2ccc3c(c2)OCO3)C(=Nc2ccc(OC)cc2)S1 (configuration not stated) | inactive
CS(=O)(=O)N1CCCC(C(=O)NCCc2ccc(Cl)cc2)C1 (configuration not stated) | inactive
CC(Sc1ncc(C#N)c(N)n1)C(=O)Nc1ccccc1 (configuration not stated) | inactive
O=C(Cn1cc(C(F)(F)F)ccc1=O)N1CCN(S(=O)(=O)c2ccccc2)CC1 | inactive
COc1cc2[nH]c(=O)n(CCC(=O)NC3CCN(Cc4ccccc4)CC3)c(=O)c2cc1OC | inactive
COCCCNC(=O)c1ccc(N2CCCC2)c(NS(=O)(=O)c2ccc(C)cc2)c1 | inactive
Cc1cc(C)cc(CC2CC(=O)N(c3nc(C)cc(C)n3)C2=O)c1 (configuration not stated) | inactive
OC1(CN2CCOCC2)C2CN3CCN(C2)CC1(c1ccccc1)C3 (configuration not stated) | inactive
CCOC(=O)CC(=O)CSc1nnc2c(n1)[nH]c1ccccc12 | inactive
CCCCS(=O)(=O)C(=C1Nc2ccccc2N1)S(=O)(=O)CCCC | inactive
COCCCNC(=O)CN(C1CCCCC1)S(=O)(=O)c1ccc(C)cc1 | inactive
